# Reference: patent US20100298141A1, “SUBSTITUTED PYRIDINE N-OXIDE HERBICIDES” (E. I. DU PONT DE NEMOURS AND COMPANY, priority 2007, published 2010)
# Tests used:
# [1] = tested on: kochia; experiment: Test C pre-/postemergence test; assay type: in vivo, Kochia scoparia
# Procedure, shortened: (§1)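 Compounds in a non-phytotoxic solvent with surfactant applied preemergence to seeded pots and, at the same time, postemergence to plants 2–18 cm tall (1- to 4-leaf stage). Paddy tests: pots flooded to 3 cm, compound applied into the water, depth held throughout.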
# [2] = tested on: eastern black nightshade; experiment: Test C pre-/postemergence test; assay type: in vivo, Solanum ptycanthum
# Procedure, shortened: as §1
# [3] = tested on: wild oat; experiment: Test C pre-/postemergence test; assay type: in vivo, Avena fatua
# Procedure, shortened: as §1
# [4] = tested on: wheat; experiment: Test A pre-/postemergence greenhouse test; assay type: in vivo, Triticum aestivum; details: for Plant response rating, Wheat: 0 to 100 scale where 0 is no effect and 100 is complete control; for Wheat plant response rating: 0 to 100 scale
# Procedure, shortened: (§2)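 Sowing in loam/sand; same-day pre (directed soil spray) and post (foliar, 1–2 leaf, 2–10 cm) treatment with surfactant-containing non-phytotoxic solvent formulation; ~10 days in greenhouse; eye-scored injury against untreated plants.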
# [5] = tested on: giant foxtail; experiment: Test C pre-/postemergence test; assay type: in vivo, Setaria faberii
# Procedure, shortened: as §1
# [6] = tested on: giant foxtail; experiment: Test A pre-/postemergence greenhouse test; assay type: in vivo, Setaria faberi; details: for Plant response rating, Foxtail, Giant: 0 to 100 scale where 0 is no effect and 100 is complete control; for Foxtail, Giant plant response rating: 0 to 100 scale
# Procedure, shortened: as §2
# [7] = tested on: morningglory; experiment: Test A pre-/postemergence greenhouse test; assay type: in vivo, Ipomoea spp.; details: for Plant response rating, Morningglory: 0 to 100 scale where 0 is no effect and 100 is complete control; for Morningglory plant response rating: 0 to 100 scale
# Procedure, shortened: as §2
# [8] = tested on: lambsquarters; experiment: Test C pre-/postemergence test; assay type: in vivo, Chenopodium album
# Procedure, shortened: as §1
# [9] = tested on: blackgrass; experiment: Test C pre-/postemergence test; assay type: in vivo, Alopecurus myosuroides
# Procedure, shortened: as §1
# [10] = tested on: redroot pigweed; experiment: Test A pre-/postemergence greenhouse test; assay type: in vivo, Amaranthus retroflexus; details: for Plant response rating, Pigweed: 0 to 100 scale where 0 is no effect and 100 is complete control; for Pigweed plant response rating: 0 to 100 scale
# Procedure, shortened: as §2
# [11] = tested on: downy brome; experiment: Test C pre-/postemergence test; assay type: in vivo, Bromus tectorum
# Procedure, shortened: as §1
# [12] = tested on: common (oilseed) sunflower; experiment: Test C pre-/postemergence test; assay type: in vivo, Helianthus annuus
# Procedure, shortened: as §1
# [13] = tested on: velvetleaf; experiment: Test C pre-/postemergence test; assay type: in vivo, Abutilon theophrasti
# Procedure, shortened: as §1
# [14] = tested on: catchweed bedstraw; experiment: Test C pre-/postemergence test; assay type: in vivo, Galium aparine
# Procedure, shortened: as §1
# [15] = tested on: common ragweed; experiment: Test C pre-/postemergence test; assay type: in vivo, Ambrosia elation
# Procedure, shortened: as §1
# [16] = tested on: wheat; experiment: Test C pre-/postemergence test; assay type: in vivo, Triticum aestivum
# Procedure, shortened: as §1
# [17] = tested on: Surinam grass; experiment: Test C pre-/postemergence test; assay type: in vivo, Brachiaria decumbens
# Procedure, shortened: as §1
# [18] = tested on: woolly cupgrass; experiment: Test C pre-/postemergence test; assay type: in vivo, Eriochloa villosa
# Procedure, shortened: as §1
# [19] = tested on: cocklebur; experiment: Test C pre-/postemergence test; assay type: in vivo, Xanthium strumarium
# Procedure, shortened: as §1
# [20] = 62 g ai/ha, Preemergence, scale 0 to 100
# [21] = 125 g ai/ha, preemergence, scale 0 (no effect) to 100 (complete control)
# [22] = Preemergence, 31 g ai/ha, scale 0 to 100 (0 no effect, 100 complete control)
# [23] = preemergence, 250 g ai/ha, scale 0 (no effect) to 100 (complete control)
# [24] = Postemergence, 500 g ai/ha, 0 is no effect, 100 is complete control
# [25] = Preemergence, 125 g ai/ha, 0 no effect, 100 complete control
compound,measurement,setting,value
Cn1nc(C(F)(F)F)c(C[S+]([O-])c2cccc[n+]2[O-])c1OCC(F)F (stereo not shown) [Compound 75],Kochia plant response rating,[1]; [20],100
same,Kochia plant response rating,[1]; [21],100
same,"Plant response rating, Kochia",[1]; [22],100
same,Kochia plant response rating,[1]; [23],100
same,Nightshade plant response rating,[2]; [20],98
same,Nightshade plant response rating,[2]; [21],100
same,"Plant response rating, Nightshade",[2]; [22],0
same,Nightshade plant response rating,[2]; [23],100
same,"Oat, Wild plant response rating",[3]; [20],40
same,"Oat, Wild plant response rating",[3]; [21],70
same,"Plant response rating, Oat, Wild",[3]; [22],0
same,"Oat, Wild plant response rating",[3]; [23],80
same,"Plant response rating, Wheat","[4]; Postemergence, 125 g ai/ha",50
same,Wheat plant response rating,[4]; [24],70
same,Wheat plant response rating,[4]; [25],70
same,"Plant response rating, Wheat","[4]; Preemergence, 500 g ai/ha",100
same,"Foxtail, Giant plant response rating",[5]; [20],85
same,"Foxtail, Giant plant response rating",[5]; [21],100
same,"Plant response rating, Foxtail, Giant",[5]; [22],80
same,"Foxtail, Giant plant response rating",[5]; [23],100
same,"Plant response rating, Foxtail, Giant","[6]; Postemergence, 125 g ai/ha",80
same,"Foxtail, Giant plant response rating",[6]; [24],90
same,"Foxtail, Giant plant response rating",[6]; [25],90
same,"Plant response rating, Foxtail, Giant","[6]; Preemergence, 500 g ai/ha",100
same,"Plant response rating, Morningglory","[7]; Postemergence, 125 g ai/ha",40
same,Morningglory plant response rating,[7]; [24],90
same,Morningglory plant response rating,[7]; [25],40
same,"Plant response rating, Morningglory","[7]; Preemergence, 500 g ai/ha",90
same,Lambsquarters plant response rating,[8]; [20],100
same,Lambsquarters plant response rating,[8]; [21],100
same,"Plant response rating, Lambsquarters",[8]; [22],100
same,Lambsquarters plant response rating,[8]; [23],100
same,Blackgrass plant response rating,[9]; [20],100
same,Blackgrass plant response rating,[9]; [21],100
same,"Plant response rating, Blackgrass",[9]; [22],60
same,Blackgrass plant response rating,[9]; [23],100
same,"Plant response rating, Pigweed","[10]; Postemergence, 125 g ai/ha",70
same,Pigweed plant response rating,[10]; [24],100
same,Pigweed plant response rating,[10]; [25],80
same,"Plant response rating, Pigweed","[10]; Preemergence, 500 g ai/ha",100
same,"Bromegrass, Downy plant response rating",[11]; [20],50
same,"Bromegrass, Downy plant response rating",[11]; [21],85
same,"Plant response rating, Bromegrass, Downy",[11]; [22],40
same,"Bromegrass, Downy plant response rating",[11]; [23],90
same,Sunflower plant response rating,[12]; [20],50
same,Sunflower plant response rating,[12]; [21],100
same,"Plant response rating, Sunflower",[12]; [22],0
same,Sunflower plant response rating,[12]; [23],100
same,Velvetleaf plant response rating,[13]; [20],100
same,Velvetleaf plant response rating,[13]; [21],100
same,"Plant response rating, Velvetleaf",[13]; [22],100
same,Velvetleaf plant response rating,[13]; [23],100
same,Galium plant response rating,[14]; [20],100
same,Galium plant response rating,[14]; [21],100
same,"Plant response rating, Galium",[14]; [22],80
same,Galium plant response rating,[14]; [23],100
same,Ragweed plant response rating,[15]; [20],80
same,Ragweed plant response rating,[15]; [21],85
same,"Plant response rating, Ragweed",[15]; [22],0
same,Ragweed plant response rating,[15]; [23],100
same,Wheat plant response rating,[16]; [20],30
same,Wheat plant response rating,[16]; [21],60
same,"Plant response rating, Wheat",[16]; [22],0
same,Wheat plant response rating,[16]; [23],95
same,Surinam Grass plant response rating,[17]; [20],100
same,Surinam Grass plant response rating,[17]; [21],100
same,"Plant response rating, Surinam Grass",[17]; [22],60
same,Surinam Grass plant response rating,[17]; [23],100
same,"Cupgrass, Woolly plant response rating",[18]; [20],85
same,"Cupgrass, Woolly plant response rating",[18]; [21],100
same,"Plant response rating, Cupgrass, Woolly",[18]; [22],85
same,"Cupgrass, Woolly plant response rating",[18]; [23],100
same,Cocklebur plant response rating,[19]; [20],0
same,Cocklebur plant response rating,[19]; [21],0
same,"Plant response rating, Cocklebur",[19]; [22],0
same,Cocklebur plant response rating,[19]; [23],10
